How the values were obtained:
[1] = target: T1, squalene synthase (Rattus norvegicus, UniProt Q02769); assay: Inhibition of squalene synthase in rat liver microsomal preparations; type: biochemical
T1 construct: squalene synthase in rat liver microsomal preparations; from tissue; host or cells: rat liver microsomes
T1 sequence (Q02769 1-416): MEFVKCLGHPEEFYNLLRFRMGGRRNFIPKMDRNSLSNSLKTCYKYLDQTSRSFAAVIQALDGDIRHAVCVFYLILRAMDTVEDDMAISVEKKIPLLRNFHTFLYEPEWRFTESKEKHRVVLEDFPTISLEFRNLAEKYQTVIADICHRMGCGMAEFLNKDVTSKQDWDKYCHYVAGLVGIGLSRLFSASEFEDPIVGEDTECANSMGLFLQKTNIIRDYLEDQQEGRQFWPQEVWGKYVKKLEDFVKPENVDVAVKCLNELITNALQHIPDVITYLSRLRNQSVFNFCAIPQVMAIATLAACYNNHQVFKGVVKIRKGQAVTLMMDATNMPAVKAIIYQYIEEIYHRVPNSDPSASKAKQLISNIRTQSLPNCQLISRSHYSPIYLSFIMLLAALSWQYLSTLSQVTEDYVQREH

[2] = target: farnesyl: protein transferase (Oryctolagus cuniculus, UniProt G1SFC8+G1T7D9); assay: Inhibition of farnesylation of p21ras precursor (H-ras protein) by farnesyl: protein transferase in rabbit reticulocyte lysate, [3H]-FPP incorporation; details: read-out: IC50-values, H-ras protein 30 µg/ml, 1 µM [3H]-farnesyl pyrophosphate, 37°C for 30 min
farnesyl: protein transferase, sequence (G1T7D9 entry or part of it, one chain of several): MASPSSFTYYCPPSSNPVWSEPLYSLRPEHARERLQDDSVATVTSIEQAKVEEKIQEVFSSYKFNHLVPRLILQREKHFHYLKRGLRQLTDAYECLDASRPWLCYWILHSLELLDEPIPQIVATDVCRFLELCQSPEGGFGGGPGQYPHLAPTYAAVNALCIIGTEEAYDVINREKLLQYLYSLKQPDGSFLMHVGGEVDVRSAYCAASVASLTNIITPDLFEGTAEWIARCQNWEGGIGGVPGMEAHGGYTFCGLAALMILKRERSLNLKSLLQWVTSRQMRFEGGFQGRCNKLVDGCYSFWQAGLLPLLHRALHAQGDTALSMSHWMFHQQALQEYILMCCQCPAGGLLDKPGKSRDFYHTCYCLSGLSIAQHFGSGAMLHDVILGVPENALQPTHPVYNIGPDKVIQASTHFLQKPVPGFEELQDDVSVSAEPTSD

Compound | IC50 [1] [µM] | IC50 [2] [µM]
CC(C)=CCCC(C)=CCCC(C)=CCCP(=O)(O)OP(=O)(O)O [compound 1, farnesylmethylphosphonophosphate] | 480 | 4
CC(C)=CCCC(C)=CCCC(C)=CCP(=O)(O)OP(=O)(O)O [compound 3, farnesylphosphonophosphate] | 120 | < 1
